Measured values as given in US20200345745A1 (University of Leicester, priority 2017, published 2020).
Read-outs that look alike come from different tables or passages of the source.

Assays:
[1] = biological target: recombinant P. fluorescens kynurenine 3-monooxygenase (PfKMO) (Pseudomonas fluorescens, UniProt Q84HF5, C252S/C461S); experiment: biochemical
Method: Protein was expressed by growing transformed cells in auto induction LB medium (Fermentas) containing 100 μg/mL for 24 hours at 22° C. […] The cell lysate was centrifuged at 180,000 g for 1 hour at 4° C. to remove cell debris. The soluble cell lysate was loaded onto Q-sepharose column equilibrated with anion exchange buffer (20 mM HEPES pH 7.5, 1 mM DTT with 10 mM NaCl) and bound protein was eluted with a gradient (5 column volumes) of increasing NaCl concentration from 50 to 100 mM in anion exchange buffer. Fractions containing KMO were pooled and precipitated in 50% saturated ammonium sulphate by adding precipitation buffer (20 mM HEPES pH 7.5, 3 M ammonium sulphate, 1 mM DTT). The precipitated protein was pelleted by centrifugation at 12,000 g for 20 min, resuspended in a small volume of size exclusion buffer (20 mM HEPES pH 7.0, 150 mM sodium acetate, 1 mM DTT) and passed down a Superdex 75 column. Pure PfKMO was pooled and stored at −80° C.
(§1) KMO activity was measured in the presence of a range of compound concentrations by monitoring the consumption of NADPH at 340 nm upon addition of enzyme via a Cary 50 UV-Vis spectrophotometer (Agilent Technologies). All measurements were performed in triplicate. The IC50 values for each compound were obtained by plotting the percentage inhibition versus the inhibitor concentration and fitting to the Morrison equation using Origin 9.0 software (OriginLab, Northampton, Mass.).

[2] = biological target: T1, recombinant Homo Sapiens kynurenine 3-monooxygenase (HsKMO) (Homo sapiens, UniProt O15229); experiment: Inhibition of recombinant Homo sapiens KMO (NADPH consumption at 340 nm); assay type: biochemical; details: 0.5 μM HsKMO, L-Kyn 250 μM, NADPH 200 μM, pH 8.0, triplicate
T1 construct: The gene encoding full-length human KMO was synthesized; glutathione S-transferase (GST; vector pAcGHLT-A); made in house; host or cells: Hi5 insect cells (baculovirus)
Method: The gene encoding full-length human KMO was synthesized (GeneScript) and codon optimized for overexpression in […]. The gene was subcloned into the baculovirus transfer vector pAcGHLT-A-glutathione S-transferase as a Ndel-EcoRI fragment and transfected into Hi5 cells along with linearized baculovirus using the following sense and antisense primers: […]
Cultured cells were lysed in 20 mM potassium phosphate buffer, pH 7.5, 10% glycerol, 0.5% n-dodecyl β-D-maltoside (DDM), 150 mM NaCl, 7 mM 2-mercaptoethanol and 50 μM FAD supplemented with protease inhibitors (Sigma-Aldrich). Soluble lysate was incubated with 3 ml pre-equilibrated glutathione uniflow resin (Clontech). […] Fractions (0.5 ml) were eluted with buffer C (buffer B+33 mM glutathione) and fractions containing KMO pooled, concentrated and loaded onto a Superdex 200 (10/30) size-exclusion chromatography column. Pure KMO was pooled and stored at −80° C.
as §1

KMO = details: literature value; read-out: IC50 (KMO inhibition); cited from earlier work

Sequence of recombinant P. fluorescens kynurenine 3-monooxygenase (PfKMO) (Q84HF5 whole entry C252S/C461S): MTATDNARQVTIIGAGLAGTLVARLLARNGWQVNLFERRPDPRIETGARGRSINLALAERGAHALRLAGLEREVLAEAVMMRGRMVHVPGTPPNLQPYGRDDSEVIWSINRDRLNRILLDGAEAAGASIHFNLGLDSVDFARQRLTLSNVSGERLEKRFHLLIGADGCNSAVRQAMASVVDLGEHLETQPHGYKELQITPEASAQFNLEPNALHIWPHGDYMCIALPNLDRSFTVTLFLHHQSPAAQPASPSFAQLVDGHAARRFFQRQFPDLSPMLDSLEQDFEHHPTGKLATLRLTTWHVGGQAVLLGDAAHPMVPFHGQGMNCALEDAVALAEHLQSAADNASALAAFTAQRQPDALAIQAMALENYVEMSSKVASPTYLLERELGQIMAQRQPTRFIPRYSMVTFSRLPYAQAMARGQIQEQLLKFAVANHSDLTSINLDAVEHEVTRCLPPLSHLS
T1 sequence (O15229 whole entry): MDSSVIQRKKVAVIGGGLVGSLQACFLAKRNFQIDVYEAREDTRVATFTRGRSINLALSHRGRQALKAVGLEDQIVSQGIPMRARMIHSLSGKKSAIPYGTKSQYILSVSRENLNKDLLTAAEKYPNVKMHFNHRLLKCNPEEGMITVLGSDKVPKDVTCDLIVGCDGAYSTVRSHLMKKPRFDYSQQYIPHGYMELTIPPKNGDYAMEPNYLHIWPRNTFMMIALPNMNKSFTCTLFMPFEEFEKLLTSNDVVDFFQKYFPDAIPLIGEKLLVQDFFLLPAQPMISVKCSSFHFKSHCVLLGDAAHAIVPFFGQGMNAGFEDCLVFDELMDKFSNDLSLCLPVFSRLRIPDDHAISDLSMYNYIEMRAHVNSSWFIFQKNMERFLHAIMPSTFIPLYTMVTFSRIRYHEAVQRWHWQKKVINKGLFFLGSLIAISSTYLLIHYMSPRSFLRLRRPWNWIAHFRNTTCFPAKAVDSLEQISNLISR

Compound	IC50 ([1]; read-out: IC50 for PfKMO inhibition, 0.1 μM PfKMO, L-Kyn 250 μM, NADPH 200 μM, pH 7.5, triplicate)	IC50 [2]	IC50 [1]	IC50 (KMO)
Cc1cc2c(c(C)c1Cl)N(Cc1nn[nH]n1)C(=O)CO2 [Example 9, 6-chloro-5,7-dimethyl-4-(2H-tetrazol-5-ylmethyl)-1,4-benzoxazin-3-one]	17 µM	1.28 µM	–	–
CCOC(=O)CN1C(=O)COc2cc(C)c(Cl)c(C)c21 [Example 2, ethyl 2-(6-chloro-5,7-dimethyl-3-oxo-1,4-benzoxazin-4-yl)acetate]	–	> 100 µM	> 100 µM	–
NC(CC(=O)c1ccc(Cl)c(Cl)c1)C(=O)O (racemic) [(R,S)-3,4-dichlorobenzoylalanine]	–	–	–	0.9 µM
Cc1cc2c(c(C)c1Cl)N(CC(=O)OC(C)C)C(=O)CO2 [Example 3, isopropyl 2-(6-chloro-5,7-dimethyl-3-oxo-1,4-benzoxazin-4-yl)acetate]	–	> 100 µM	> 100 µM	–
Cc1cc2c(c(C)c1Cl)N(CC(N)=O)C(=O)CO2 [Example 8, 2-(6-chloro-5,7-dimethyl-3-oxo-1,4-benzoxazin-4-yl)acetamide]	–	> 100 µM	> 100 µM	–
COC(=O)CN1C(=O)COc2cc(C)c(Cl)c(C)c21 [Example 1, methyl 2-(6-chloro-5,7-dimethyl-3-oxo-1,4-benzoxazin-4-yl)acetate]	–	> 100 µM	> 100 µM	–
Cc1cc2c(c(C)c1Cl)N(CC(=O)N(C)C)C(=O)CO2 [Example 6, 2-(6-chloro-5,7-dimethyl-3-oxo-1,4-benzoxazin-4-yl)-N,N-dimethyl-acetamide]	–	> 100 µM	> 100 µM	–
CNC(=O)CN1C(=O)COc2cc(C)c(Cl)c(C)c21 [Example 7]	–	> 100 µM	> 100 µM	–
O=C(O)[C@H]1C[C@@H]1C(=O)c1ccc(Cl)c(Cl)c1 [UPF-648]	–	–	–	0.02 µM
Cc1cc2c(c(C)c1Cl)N(CC(=O)OC(C)(C)C)C(=O)CO2 [Example 4, tert-butyl 2-(6-chloro-5,7-dimethyl-3-oxo-1,4-benzoxazin-4-yl)acetate]	–	> 100 µM	> 100 µM	–
